What was measured:
Format in all cases: in vivo
[1] = system: pale smartweed (Po); test: Test Example 3: herbicidal effects by upland field foliage treatment; parameters: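 grade of growth control; 5 = at least 90%; 4 = 70 to 90%; 3 = 50 to 70%; 2 = 30 to 50%; 1 = 10 to 30%; 0 = under 10%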
Method in brief: (§1)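 Two-week-old greenhouse seedlings, raised in sand-filled pots (120 cm^2) with seed covered by soil, receive a foliar application. Effects are then evaluated by standard grades 14 days later, plants remaining in the greenhouse meanwhile.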

[2] = system: common lambsquarters (Ch); test: as above; parameters: scale not given here
Method in brief: as §1

[3] = system: slender amaranth (Am); test: as above; parameters: scale not given here
Method in brief: as §1

[4] = system: rice flatsedge (Ci); test: as above; parameters: scale not given here
Method in brief: as §1

[5] = system: barnyardgrass (Ec); test: as above; parameters: scale not given here
Method in brief: as §1

[6] = system: Diaitaria ciliaris (Di); test: as above; parameters: scale not given here
Method in brief: as §1

[7] = system: cotton (Go); test: Test Example 4: crop plant selectivity by upland field soil treatment (cotton), phytotoxicity; parameters: scale not given here; details: dose 6.3 g ai/10 a, evaluated 21st day after application
Method in brief: (§2)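 Cotton and weeds (incl. China jute, pale smartweed, slender amaranth) sown in sand-filled pots and covered with soil, then soil-treated. Grown in greenhouse; herbicidal effect and cotton phytotoxicity scored on day 21 after application against a rating standard.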

[8] = system: pale smartweed (Po); test: Test Example 2: herbicidal effects by upland field soil treatment; details: 100 g of the active ingredient per 10 ares, evaluated on the 21st day after application;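 also: grade of growth control; 5 = at least 90%; 4 = 70 to 90%; 3 = 50 to 70%; 2 = 30 to 50%; 1 = 10 to 30%; 0 = under 10%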
Description: (§3) (Test on Herbicidal Effects by Upland Field Soil Treatment)

[9] = system: common lambsquarters (Ch); test: as above; details: 100 g of the active ingredient per 10 ares, evaluated on the 21st day after application
Description: as §3

[10] = system: Digitaria ciliaris (Di); test: as above; details: 100 g of the active ingredient per 10 ares, evaluated on the 21st day after application;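 also: grade of growth control; 5 = at least 90%; 4 = 70 to 90%; 3 = 50 to 70%; 2 = 30 to 50%; 1 = 10 to 30%; 0 = under 10%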
Description: as §3

[11] = system: slender amaranth (Am); test: as above; details: 100 g of the active ingredient per 10 ares, evaluated on the 21st day after application
Description: as §3

[12] = system: rice flatsedge (Ci); test: as above; details: 100 g of the active ingredient per 10 ares, evaluated on the 21st day after application
Description: as §3

[13] = system: barnyardgrass (Ec); test: as above; details: 100 g of the active ingredient per 10 ares, evaluated on the 21st day after application
Description: as §3

[14] = system: corn (Ze); test: Test Example 7: crop plant selectivity by upland field soil treatment (corn), phytotoxicity; parameters: scale not given here; details: dose 6.3 g ai/10a, 21st day after application
Method: (§4) (Test on Crop Plant Selectivity by Upland Field Soil Treatment)
(§5) In a plastic pot (surface area: 600 cm^2) filled with sand, corn (Ze), green foxtail (Se), pale smartweed (Po), slender amaranth (Am), common lambsquarters (Ch) and China jute (Ab) were sown and covered with soil. […] The plants were then cultured in a green house, and the evaluation of the herbicidal effects and phytotoxicity was conducted on the 21st day after the application in accordance with the standards as identified in Table 47.

[15] = system: pale smartweed (Po); test: Test Example 5: crop plant selectivity by upland field soil treatment (wheat), herbicidal effects; parameters: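 grade of growth control; 5 = at least 90%; 4 = 70 to 90%; 3 = 50 to 70%; 2 = 30 to 50%; 1 = 10 to 30%; 0 = under 10%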; details: dose 6.3 g ai/10a, 21st day after application
Method in brief: (§6)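 Seeds sown in pots of sand and covered with soil. Soil treatment applied. Plants cultured in a greenhouse. Effects rated by standard scale after 21 days.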

[16] = system: common lambsquarters (Ch); test: as above; parameters: scale not given here; details: dose 6.3 g ai/10a, 21st day after application
Method in brief: as §6

[17] = system: China jute (Ab); test: as above; parameters: scale not given here; details: dose 6.3 g ai/10a, 21st day after application
Method in brief: as §6

[18] = system: slender amaranth (Am); test: as above; parameters: scale not given here; details: dose 6.3 g ai/10a, 21st day after application
Method in brief: as §6

[19] = system: green foxtail (Se); test: as above; parameters: scale not given here; details: dose 6.3 g ai/10a, 21st day after application
Method in brief: as §6

[20] = system: pale smartweed (Po); test: Test Example 7: crop plant selectivity by upland field soil treatment (corn), herbicidal effects; parameters: scale not given here; details: dose 6.3 g ai/10a, 21st day after application
Method: as §4, §5

[21] = system: common lambsquarters (Ch); test: as above; parameters: scale not given here; details: dose 6.3 g ai/10a, 21st day after application
Method: as §4, §5

[22] = system: China jute (Ab); test: as above; parameters: scale not given here; details: dose 6.3 g ai/10a, 21st day after application
Method: as §4, §5

[23] = system: slender amaranth (Am); test: as above; parameters: scale not given here; details: dose 6.3 g ai/10a, 21st day after application
Method: as §4, §5

[24] = system: green foxtail (Se); test: as above; parameters: scale not given here; details: dose 6.3 g ai/10a, 21st day after application
Method: as §4, §5

[25] = system: barnyardgrass (Ec); test: Test Example 1: herbicidal effects by paddy field soil treatment; details: 100 g of the active ingredient per 10 ares, 21st day after the application, index 0-5 of Table 47;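 also: grade of growth control; 5 = at least 90%; 4 = 70 to 90%; 3 = 50 to 70%; 2 = 30 to 50%; 1 = 10 to 30%; 0 = under 10%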
Method in brief: (§7)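 Flooded paddy-soil pots (3 cm water) sown after puddling/leveling; treatment 100 g a.i./10 ares; greenhouse culture; herbicidal effect rated visually on a scoring scale at 21 d post-application.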

[26] = system: monochoria (Mo); test: as above; details: 100 g of the active ingredient per 10 ares, 21st day after the application, index 0-5 of Table 47;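 also: grade of growth control; 5 = at least 90%; 4 = 70 to 90%; 3 = 50 to 70%; 2 = 30 to 50%; 1 = 10 to 30%; 0 = under 10%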
Method in brief: as §7

[27] = system: bulrush (Sc); test: as above; details: 100 g of the active ingredient per 10 ares, 21st day after the application, index 0-5 of Table 47
Method in brief: as §7

[28] = system: pale smartweed (Po); test: Test Example 4: crop plant selectivity by upland field soil treatment (cotton), herbicidal effects; parameters: scale not given here; details: dose 6.3 g ai/10 a, evaluated 21st day after application
Method in brief: as §2

[29] = system: common lambsquarters (Ch); test: as above; parameters: scale not given here; details: dose 6.3 g ai/10 a, evaluated 21st day after application
Method in brief: as §2

[30] = system: China jute (Ab); test: as above; parameters: scale not given here; details: dose 6.3 g ai/10 a, evaluated 21st day after application
Method in brief: as §2

[31] = system: slender amaranth (Am); test: as above; parameters: scale not given here; details: dose 6.3 g ai/10 a, evaluated 21st day after application
Method in brief: as §2

[32] = system: green foxtail (Se); test: as above; parameters: scale not given here; details: dose 6.3 g ai/10 a, evaluated 21st day after application
Method in brief: as §2

[33] = system: wheat (Tr); test: Test Example 5: crop plant selectivity by upland field soil treatment (wheat), phytotoxicity; parameters: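 grade of crop injury; 5 = at least 90%; 4 = 70 to 90%; 3 = 50 to 70%; 2 = 30 to 50%; 1 = 10 to 30%; 0 = under 10%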; details: dose 6.3 g ai/10a, 21st day after application
Method in brief: as §6

[34] = system: pale smartweed (Po); test: Test Example 6: crop plant selectivity by upland field soil treatment (soybean), herbicidal effects; parameters: scale not given here; details: dose 6.3 g ai/10a, 21st day after application
Method in brief: (§8)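 Greenhouse pot test with soil-applied compound after sowing soybean and weeds in sand; effects graded on day 21 after application.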

[35] = system: common lambsquarters (Ch); test: as above; parameters: scale not given here; details: dose 6.3 g ai/10a, 21st day after application
Method in brief: as §8

[36] = system: China jute (Ab); test: as above; parameters: scale not given here; details: dose 6.3 g ai/10a, 21st day after application
Method in brief: as §8

[37] = system: slender amaranth (Am); test: as above; parameters: scale not given here; details: dose 6.3 g ai/10a, 21st day after application
Method in brief: as §8

[38] = system: green foxtail (Se); test: as above; parameters: scale not given here; details: dose 6.3 g ai/10a, 21st day after application
Method in brief: as §8

[39] = system: soybean (Gl); test: Test Example 6: crop plant selectivity by upland field soil treatment (soybean), phytotoxicity; parameters: scale not given here; details: dose 6.3 g ai/10a, 21st day after application
Method in brief: as §8

[40] = 100 g of the active ingredient per 10 ares, evaluated on the 14th day after treatment
[41] = 100 g active ingredient per 10 ares, evaluated 14th day after treatment

SMILES | Phytotoxicity Go [7] | Herbicidal effects Po [8] | Herbicidal effects Ch [9] | Herbicidal effects Di [10] | Herbicidal effects Am [11] | Herbicidal effects Ci [12] | Herbicidal effects Ec [13] | Phytotoxicity Ze [14] | Herbicidal effects Po [15] | Herbicidal effects Ch [16] | Herbicidal effects Ab [17] | Herbicidal effects Am [18] | Herbicidal effects Se [19] | Herbicidal effects Po [20] | Herbicidal effects Ch [21] | Herbicidal effects Ab [22] | Herbicidal effects Am [23] | Herbicidal effects Se [24] | Herbicidal effects Ec [25] | Herbicidal effects Mo [26] | also measured
Cn1c(C(F)(F)F)ccc(-c2cc(OCC(F)F)c(Cl)cc2F)c1=O [1-173] | 1 | 5 | 5 | 5 | 5 | 5 | 5 | 1 | 5 | 5 | 5 | 5 | 5 | 5 | 5 | 5 | 5 | 5 | 5 | 5 | Herbicidal effects Po [1, 40]: 5; Herbicidal effects Ch [2, 40]: 5; Herbicidal effects Am [3, 40]: 5; Herbicidal effects Ci [4, 40]: 5; Herbicidal effects Ec [5, 40]: 5; Herbicidal effects Di [6, 40]: 5; Herbicidal effects Sc [27]: 5; Herbicidal effects Po [28]: 5; Herbicidal effects Ch [29]: 5; Herbicidal effects Ab [30]: 5; Herbicidal effects Am [31]: 5; Herbicidal effects Se [32]: 5; Phytotoxicity Tr [33]: 1; Herbicidal effects Po [34]: 5; Herbicidal effects Ch [35]: 5; Herbicidal effects Ab [36]: 5; Herbicidal effects Am [37]: 5; Herbicidal effects Se [38]: 5; Phytotoxicity Gl [39]: 1
COc1cc(Cl)cc(F)c1-c1ccc(C(F)(F)F)n(C)c1=O [1′-1] | 0 | 5 | 5 | 5 | 5 | 5 | 5 | 1 | 5 | 5 | 5 | 5 | 5 | 5 | 5 | 5 | 5 | 5 | 5 | 5 | Herbicidal effects Po [1, 41]: 5; Herbicidal effects Ch [2, 41]: 5; Herbicidal effects Am [3, 41]: 5; Herbicidal effects Ci [4, 41]: 5; Herbicidal effects Ec [5, 41]: 5; Herbicidal effects Di [6, 41]: 5; Herbicidal effects Sc [27]: 5; Herbicidal effects Po [28]: 5; Herbicidal effects Ch [29]: 5; Herbicidal effects Ab [30]: 5; Herbicidal effects Am [31]: 5; Herbicidal effects Se [32]: 5; Phytotoxicity Tr [33]: 1; Herbicidal effects Po [34]: 5; Herbicidal effects Ch [35]: 5; Herbicidal effects Ab [36]: 5; Herbicidal effects Am [37]: 5; Herbicidal effects Se [38]: 5; Phytotoxicity Gl [39]: 1

— patent US6472348B1, “Pyridone derivatives and herbicides” (Kumiai Chemical Industry Co., Ltd., priority 1996, dated 2002)
